Test results: ChEMBL document CHEMBL1150505 (Bioorg Med Chem Lett, 1994)

Columns and labels:
[1] = LTB4 receptor antagonist activity was determined by inhibition of specific binding of [3H]LTB4 in guinea pig lung membranes
[2] = organism: Homo sapiens; experiment: Compound was tested for Leukotriene B4-mediated Up-regulation of human neutrophil CD11b/CD18; assay type: functional
[3] = biological target: Leukotriene B4 receptor 1 (Homo sapiens, UniProt Q15722); experiment: LTB4 receptor antagonist activity was determined by inhibition of specific binding of [3H]LTB4 in human neutrophil
Chain of Leukotriene B4 receptor 1 (Q15722 whole entry): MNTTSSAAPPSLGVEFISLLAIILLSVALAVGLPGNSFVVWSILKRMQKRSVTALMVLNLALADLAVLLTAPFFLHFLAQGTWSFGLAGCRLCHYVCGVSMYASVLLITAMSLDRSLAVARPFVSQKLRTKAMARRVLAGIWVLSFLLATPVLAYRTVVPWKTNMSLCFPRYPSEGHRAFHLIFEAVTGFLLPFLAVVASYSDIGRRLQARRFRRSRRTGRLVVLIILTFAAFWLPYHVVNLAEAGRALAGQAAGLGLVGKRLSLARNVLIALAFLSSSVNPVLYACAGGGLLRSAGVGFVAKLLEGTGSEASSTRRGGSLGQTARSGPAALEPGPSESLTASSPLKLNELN

SMILES | Ki [1] | IC50 [2] | Ki [3]
CCc1cc(-c2ccc(F)cc2)c(O)cc1OCCCOc1ccc2c(=O)c3cc(C(=O)O)ccc3oc2c1CCC(=O)O | 0.04 nM |  | 
CCc1cc(-c2ccc(F)cc2)c(O)cc1OCCCOc1ccc(C#CCCC(=O)O)cc1CCC(=O)O |  | 4.7 nM | 
CCc1cc(-c2ccc(F)cc2)c(O)cc1OCCCOc1cc(Oc2ccc(C(=O)O)cc2)ccc1CCC(=O)O |  | 1800 nM | 39 nM
CCc1cc(-c2ccc(F)cc2)c(O)cc1OCCCOc1cccc(Oc2ccc(C(=O)O)cc2)c1CCC(=O)O |  | 2.6 nM | 
